Patent US20220016112A1, “DIHYDROQUINOXALINE AND DIHYDROPYRIDOPYRAZINE DERIVATIVES AS RSV INHIBITORS” (Enanta Pharmaceuticals, Inc., priority 2020, published 2022)

System: Human RSV-A (“Long” strain)
Assay: RSV in vitro cytoprotection assay in HEp-2 cells (ATPlite readout)
Type: cell-based
Conditions: human respiratory syncytial virus, 96 h; HEp-2 cells, genotype A “Long” strain RSV, 4-day incubation, ATPlite; read-out: Human RSV-A (“Long” strain) EC50
Source text: RSV is a single stranded negative sense RNA virus that causes respiratory tract infections which can be dangerous to infants, the elderly, and immunosuppressed individuals. Currently there is no vaccine, and therapeutic options are both costly and of limited effectiveness. These approved treatments are Ribavirin, and Palivizumab/Synagis (a monoclonal antibody). RSV has two genotypes, A and B, which differ primarily in the structure of the virus' surface “G” attachment protein. Our current primary screen focusses on RSV-A and uses an in vitro cytoprotection assay where compounds are added in 2-fold dilutions to cells which are then subjected to fully replicative viral particles. Cell viability is measured several days later along with separate measurements of compound cytotoxicity. This report focuses on the results of our most recent screening of compounds.
HEp-2 cells, (originally derived from tumors grown in irradiated-cortisonised weanling rats that had been injected with epidermoid carcinoma tissue from a person's larynx, but later found to be indistinguishable from HeLa cells by PCR DNA analysis), were used for the culturing of genotype A, “Long” strain RSV. Flasks were inoculated with RSV and viral stocks were collected once cytopathic effect (CPE) was greater than 90%. Viral stocks in 25% sucrose media were snap frozen using liquid nitrogen to increase viral stability. Viral stock titers were quantified by tissue culture infectious dose 50% (TCID50) using 8,000 cells per well and 3-fold viral dilutions across a 96-well plate, cultured for 4 days.
Following extensive parameter testing, the final assay is run as follows: HEp-2 cells are seeded into the inner 60 wells of a 96-well plate at 8,000 cells per well in a volume of 50 μL using Growth Media (DMEM without phenol red, 1% L-Glut, 1% Penn/Strep, 1% nonessential amino acids, 10% FBS). 2-Fold serial dilutions of control and test compounds are added to the wells in duplicate in a total volume of 25 μL. Viral stock is then added to the wells in a volume of 25 μL, bringing the total volume of each well to 100 μL. Each 96-well plate has a control column of 6 wells with cells and virus but no compound (negative control, max CPE), a column with cells but no compound or virus (positive control, minimum CPE), and a column with no cells or virus or compound (background plate/reagent control). The control wells with cells but no virus are given an additional 25 uL of growth media containing an equal quantity of sucrose as those wells receiving the viral stock in order to keep consistent in media and volume conditions. The outer wells of the plate are filled with 125 μL of growth media to act as a thermal and evaporative moat around the test wells. Following a 4-day incubation period, the plates are read using ATPlite (50 uL added per well), which quantifies the amount of ATP (a measure of cell health) present in each well. Assay plates are read using the Envision luminometer. In parallel, cytotoxicity is examined on an additional 96-well plate treated in an identical manner, but substituting the 25 μL of viral stock for 25 μL of growth media. […] EC50 ranges are as follows: A<0.01 μM; B 0.01-0.05 μM; C>0.05 μM.

EC50 [nM]	Structure (SMILES)
10 to 50	Cc1cnc(N2CC3(CCOCC3)C2)c(C(=O)Nc2ccc(C(=O)N3c4ccccc4N=C(c4ccc(C(=O)NC5CC5)s4)[C@@H]3C)cc2)c1 [Example 1]
> 50	Cc1cnc(N2CC3(CCOCC3)C2)c(C(=O)Nc2ccc(C(=O)N3c4ccccc4N=C(c4ccc(C(=O)Nc5c(C)cccc5F)s4)[C@@H]3C)cc2)c1 [Example 2]
> 50	Cc1cnc(N2CC3(CCOCC3)C2)c(C(=O)Nc2ccc(C(=O)N3c4ccccc4N=C(c4ccc(C(=O)NC5CCC5)s4)[C@@H]3C)cc2)c1 [Example 3]
> 50	Cc1cnc(N2CC3(CCOCC3)C2)c(C(=O)Nc2ccc(C(=O)N3c4ccccc4N=C(c4ccc(C(=O)NC5CC5)cc4)[C@@H]3C)cc2)c1 [Example 4]
> 50	Cc1cnc(N2CC3(CCOCC3)C2)c(C(=O)Nc2ccc(C(=O)N3c4ccccc4N=C(c4ccc(C(=O)Nc5c(C)cccc5F)cc4)[C@@H]3C)cc2)c1 [Example 5]
< 10	Cc1cnc(N2CC3(CCOCC3)C2)c(C(=O)Nc2ccc(C(=O)N3c4ccccc4N=C(c4ccc(C(=O)NC5CC5)s4)[C@H]3C)cc2)c1 [Example 6]
10 to 50	Cc1cnc(N2CC3(CCOCC3)C2)c(C(=O)Nc2ccc(C(=O)N3c4ccccc4N=C(c4ccc(C(=O)Nc5c(C)cccc5F)s4)[C@H]3C)cc2)c1 [Example 7]
< 10	Cc1cnc(N2CC3(CCOCC3)C2)c(C(=O)Nc2ccc(C(=O)N3c4ccccc4N=C(c4ccc(C(=O)NC5(C)CC5)s4)[C@H]3C)cc2)c1 [Example 8]
< 10	Cc1cnc(N2CC3(CCOCC3)C2)c(C(=O)Nc2ccc(C(=O)N3c4ccccc4N=C(c4ccc(C(=O)NC5CCC5)s4)[C@H]3C)cc2)c1 [Example 9]
10 to 50	Cc1cnc(N2CC3(CCOCC3)C2)c(C(=O)Nc2ccc(C(=O)N3c4ccccc4N=C(c4ccc(C(=O)NC5CC(F)(F)C5)s4)[C@H]3C)cc2)c1 [Example 10]
< 10	Cc1cnc(N2CC3(CCOCC3)C2)c(C(=O)Nc2ccc(C(=O)N3c4ccccc4N=C(c4ccc(C(=O)NC5(C)CCC5)s4)[C@H]3C)cc2)c1 [Example 11]
< 10	Cc1cnc(N2CC3(CCOCC3)C2)c(C(=O)Nc2ccc(C(=O)N3c4ccccc4N=C(c4ccc(C(=O)NC56CC(C5)C6)s4)[C@H]3C)cc2)c1 [Example 12]
< 10	Cc1cnc(N2CC3(CCOCC3)C2)c(C(=O)Nc2ccc(C(=O)N3c4ccccc4N=C(c4ccc(C(=O)NC56CC(C)(C5)C6)s4)[C@H]3C)cc2)c1 [Example 13]
10 to 50	Cc1cnc(N2CC3(CCOCC3)C2)c(C(=O)Nc2ccc(C(=O)N3c4ccccc4N=C(c4ccc(C(=O)Nc5ncccc5F)s4)[C@H]3C)cc2)c1 [Example 14]
< 10	Cc1ccc(C(=O)Nc2ccc(C(=O)N3c4ccccc4N=C(c4ccc(C(=O)NC5CC5)s4)[C@H]3C)cc2)c(N2CC3(CCOCC3)C2)n1 [Example 15]
< 10	Cc1ccc(C(=O)Nc2ccc(C(=O)N3c4ccccc4N=C(c4ccc(C(=O)NC5CCC5)s4)[C@H]3C)cc2)c(N2CC3(CCOCC3)C2)n1 [Example 16]

EC50 [nM]	Structure (SMILES)
< 10	C[C@@H]1C(c2ccc(C(=O)NC3CC3)s2)=Nc2ccccc2N1C(=O)c1ccc(NC(=O)c2cc3c(nc2N2CC4(CCOCC4)C2)CCC3)cc1 [Example 17]
< 10	C[C@@H]1C(c2ccc(C(=O)NC3CCC3)s2)=Nc2ccccc2N1C(=O)c1ccc(NC(=O)c2cc3c(nc2N2CC4(CCOCC4)C2)CCC3)cc1 [Example 18]
< 10	C[C@@H]1C(c2ccc(C(=O)NC3CC3)s2)=Nc2ccccc2N1C(=O)c1ccc(NC(=O)c2cc(C3CC3)cnc2N2CC3(CCOCC3)C2)cc1 [Example 19]
< 10	C[C@@H]1C(c2ccc(C(=O)NC3CCC3)s2)=Nc2ccccc2N1C(=O)c1ccc(NC(=O)c2cc(C3CC3)cnc2N2CC3(CCOCC3)C2)cc1 [Example 20]
< 10	CCc1cnc(N2CC3(CCOCC3)C2)c(C(=O)Nc2ccc(C(=O)N3c4ccccc4N=C(c4ccc(C(=O)NC5CC5)s4)[C@H]3C)cc2)c1 [Example 21]
< 10	CCc1cnc(N2CC3(CCOCC3)C2)c(C(=O)Nc2ccc(C(=O)N3c4ccccc4N=C(c4ccc(C(=O)NC5CCC5)s4)[C@H]3C)cc2)c1 [Example 22]
10 to 50	C[C@@H]1C(c2ccc(C(=O)NC3CC3)s2)=Nc2ccccc2N1C(=O)c1ccc(NC(=O)c2cc(C(F)(F)F)cnc2N2CC3(CCOCC3)C2)cc1 [Example 23]
10 to 50	C[C@@H]1C(c2ccc(C(=O)NC3CCC3)s2)=Nc2ccccc2N1C(=O)c1ccc(NC(=O)c2cc(C(F)(F)F)cnc2N2CC3(CCOCC3)C2)cc1 [Example 24]
> 50	Cc1cnc(N2CC3(CCOCC3)C2)c(C(=O)Nc2ccc(C(=O)N3c4ccccc4N=C(c4ccc(C(=O)NC5CC5)cc4)[C@H]3C)cc2)c1 [Example 25]
> 50	Cc1cnc(N2CC3(CCOCC3)C2)c(C(=O)Nc2ccc(C(=O)N3c4ccccc4N=C(c4ccc(C(=O)Nc5c(C)cccc5F)cc4)[C@H]3C)cc2)c1 [Example 26]
> 50	Cc1cnc(N2CC3(CCOCC3)C2)c(C(=O)Nc2ccc(C(=O)N3c4ccccc4N=C(c4ccc(C(=O)NC5CC5)s4)C3(C)C)cc2)c1 [Example 27]
< 10	Cc1cnc(N2CC3(CCOCC3)C2)c(C(=O)Nc2ccc(C(=O)N3c4ccccc4N=C(c4ccc(C(=O)NC5CCC5)s4)C3(C)C)cc2)c1 [Example 28]
10 to 50	Cc1cnc(N2CC3(CCOCC3)C2)c(C(=O)Nc2ccc(C(=O)N3c4cccnc4N=C(c4ccc(C(=O)NC5CCC5)s4)[C@H]3C)cc2)c1 [Example 29]
> 50	Cc1cnc(N2CC3(CCOCC3)C2)c(C(=O)Nc2ccc(C(=O)N3c4ncccc4N=C(c4ccc(C(=O)NC5CC5)s4)[C@H]3C)cc2)c1 [Example 30]
10 to 50	Cc1cnc(N2CC3(CCOCC3)C2)c(C(=O)Nc2ccc(C(=O)N3c4ncccc4N=C(c4ccc(C(=O)NC5CCC5)s4)[C@H]3C)cc2)c1 [Example 31]

Same assay, conditions: human respiratory syncytial virus, HEp-2

Structure (SMILES)	EC50 [nM]
O=C(Nc1ccccc1F)N[C@H]1N=C(c2ccccc2)c2ccccc2NC1=O [RSV-604, reference compound]	~2400
